This note sets out measurements from patent US5684028A, “Sulphorous derivatives of imidazole, their preparation process, the new intermediates obtained, their use as medicaments and the pharmaceutical compositions” (Roussel UCLAF, priority 1990, dated 1997).

One experiment has as its target T1, angiotensin II receptor (Rattus norvegicus, UniProt P25095).
T1 construct: A fresh membrane preparation obtained from the liver of a rat is used; from tissue; host or cells: rat liver, fresh membrane preparation
T1 sequence (P25095 1-359): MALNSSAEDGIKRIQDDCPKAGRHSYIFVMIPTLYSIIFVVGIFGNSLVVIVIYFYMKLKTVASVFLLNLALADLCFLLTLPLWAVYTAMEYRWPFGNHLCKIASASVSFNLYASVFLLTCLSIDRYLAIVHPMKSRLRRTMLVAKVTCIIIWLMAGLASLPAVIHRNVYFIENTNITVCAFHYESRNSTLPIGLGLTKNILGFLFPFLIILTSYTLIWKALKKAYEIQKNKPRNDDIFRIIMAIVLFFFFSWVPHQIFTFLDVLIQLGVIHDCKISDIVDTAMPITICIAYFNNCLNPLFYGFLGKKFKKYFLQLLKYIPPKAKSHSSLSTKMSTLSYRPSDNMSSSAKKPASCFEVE
As to the kind of experiment: Test on the angiotensin II receptor (displacement of I^125 angiotensin II, rat liver membranes). To be noted: 25° C., 150 minutes, read-out: IC50 (50% inhibiting concentration, displacement of specific radioactivity fixed on the receptor). The class given is binding. The procedure: 1 - Test on the angiotensin II receptor
A fresh membrane preparation obtained from the liver of a rat is used. The tissue is ground up in a polytron in a Tris 50 mM buffer pH 7.4, the grinding is followed by 3 centrifugations at 30,000 g for 15 minutes, the deposits being taken up in between in the Tris buffer pH 7.4.
The last deposits are put in suspension in an incubation buffer (Tris 20 mM, NaCl 135 mM, […], KCl 10 mM, glucose 5 mM, MgCl2 10 mM PMSF 0.3 mM, bacitracin 0.1 mM, BSA 0.2%).
Aliquoted fractions of 2 ml are divided into hemolysis tubes and I^125 angiotensin II (25,000 DPM per tube) and the product to be studied are added. (The product is first tested at 3×10^-5 M three times). When the tested product displaces by more than 50% the radioactivity linked specifically to the receptor, it is tested again according to a range of 7 doses in order to determine the dose which inhibits by 50% the radioactivity linked specifically to the receptor. In this way the 50% inhibiting concentration is determined.
The non-specific bond is determined by addition of the product of Example 94 of the European Patent 0,253,310, at 10^-5 M (three times). The medium is incubated at 25° C. for 150 minutes, put in a water bath at 0° C. for 5 minutes, filtered under vacuum, rinsed with Tris buffer pH 7.4 and the radioactivity is counted in the presence of scintillating Triton.
The result is expressed directly as the 50% inhibiting concentration (IC50), that is as the concentration of studied product, expressed in nM, necessary to displace 50% of the specific radioactivity fixed on the receptor studied.

For experiment [1], the system named is angiotensin II (response of the isolated portal vein). As to the kind of experiment: Antagonistic activity of angiotensin II on the isolated portal vein. To be noted: portal vein of male Wistar rats; angiotensin II 3.10^-8 M; compound 15 minutes before; 37° C.; verapamil 1.10^-6 M; read-out: IC50 (dose which produces a 50% inhibition of the response to angiotensin). The procedure:
The portal vein of male Wistar rats (about 350 g) (IFFA Credo France) is removed after cervical dislocation and placed rapidly in a physiological solution (see below) at ambient temperature. A ring of about 1 mm is mounted in a bath with an isolation mechanism, containing 20 ml of the following physiological solution (composition in mM: NaCl 118.3 - KCl 4.7 - MgSO4 1.2 - KH2 PO4 1.2 - NaHCO3 25 - glucose 11.1 - CaCl2 2.5), the medium is maintained at 37° C. and oxygenated with an oxygen (95%), carbon dioxide (5%) mixture. The initial pressure imposed is 1 g, the rings are left at rest for 60 to 90 minutes. In order to avoid spontaneous contractions, verapamil is added to the incubation bath (1.10^-6 M).
At the end of the rest period angiotensin II (Ciba hypertensin) 3.10^-8 M is added to the incubation bath and left in contact with the preparation for one minute. This operation is repeated every 30 minutes, the tissue being washed 3 or 4 times between two stimulations by angiotensin. The compound to be studied is introduced into the bath 15 minutes before a new stimulation by angiotensin. Increasing concentrations of the product to be studied are used and the IC50 (dose which produces a 50% inhibition of the response to angiotensin) of the product to be studied is calculated, this is expressed in nanomoles.

The subject of experiment [2] is angiotensin II (pressure effects). Put plainly: Test for antagonistic activity of angiotensin II in a demedullated rat. To be noted: iv, demedullated male Sprague-Dawley rats, jugular vein injection 5 minutes before angiotensin II (0.75 micrograms/kg), diastolic arterial pressure, read-out: IC50 (dose which inhibits by 50% the pressure effects of angiotensin II). The class given is in vivo. As to the method: 3 - Test for antagonistic activity of angiotensin II in a demedullated rat
Male Sprague-Dawley rats (250 to 350 g) are anaesthetized by an intra-peritoneal injection of sodium pentobarbital (60 mg/kg). The diastolic arterial pressure is recorded by means of a heparinized catheter (PE50) introduced into the left carotid of the animal, and connected to a pressure calculator (Gould, Pressure Processor) by means of a Gould pressure sensor,
A catheter is introduced into the right jugular vein of the animal in order to allow the injection of the molecules to be studied.
The animal is placed under assisted respiration. A bilateral section of the pneumogastric nerves is carried out. The rat is then demedullated.
After a suitable period of stabilization, the study of the antagonism of the molecules vis- -vis angiotensin II (CIBA Hypertensin) is approached in the following manner:
1 - Three consecutive injections of angiotensin II (0.75 micrograms/kg) spaced 15 minutes apart permits a reproducible and stable pressure response to be obtained.
2 - While keeping a time interval of 15 minutes for the administration of angiotensin II, the molecules (0.01 to 10 mg/kg) are injected 5 minutes before the angiotensin II.
The pressure effects of angiotensin II in the presence of the antagonist are expressed as a percentage of the pressure effects of angiotensin II administered on its own. The dose which inhibits the studied effect by 50% is thus determined.
Each animal is considered to be its own control.

On to `CCCCc1nc(SCc2ccccc2)c(CO)n1Cc1ccc(-c2ccccc2C(=O)O)cc1` [Example 74], for which the IC50 on angiotensin II receptor was determined as 5.8 nM; in experiment [1] it was 2 nM. Besides, the ED50 in experiment [2] was found to be 0.34 mg/kg.
For `CCCCc1nc(S(C)(=O)=O)c(C(=O)O)n1Cc1ccc(-c2ccccc2-c2nn[nH]n2)cc1` [Example 83], the IC50 at angiotensin II receptor was 1.3 nM; in experiment [1], 0.21 nM. The ED50 in experiment [2] was 0.022 mg/kg.
Regarding `CCCCc1nc(S(C)(=O)=O)c(C(=O)O)n1Cc1ccc(-c2ccccc2-c2nn[nH]n2)cc1` [Example 84], the IC50 on angiotensin II receptor came to 0.8 nM.
For `CCCCc1nc(SCc2ccccc2)c(C(=O)O)n1Cc1ccc(-c2ccccc2C(=O)O)cc1` [Example 48, 2-butyl-1-[[2'-carboxy-(1,1'-biphenyl)-4-yl]-methyl]-4-[(phenylmethyl)-thio]-1H-imidazole-5-carboxylic acid], the IC50 at angiotensin II receptor was found to be 5.7 nM; in experiment [1] it was 0.9 nM.
As for `CCCCc1nc(SCc2ccc(OC)cc2)c(C(=O)O)n1Cc1ccc(-c2ccccc2C(=O)O)cc1` [Example 70], the IC50 on angiotensin II receptor is 3.6 nM; in experiment [1], 0.56 nM. Moreover, the ED50 in experiment [2] is 0.33 mg/kg.
With `CCCCc1nc(SC)c(C(=O)O)n1Cc1ccc(-c2ccccc2C(=O)O)cc1` [Example 22, 2-butyl-1-[[2'-carboxy-(1,1'-biphenyl)-4-yl]-methyl]-4-(methylthio)-1H-imidazole-5-carboxylic acid], the IC50 on angiotensin II receptor was found to be 49 nM; in experiment [1], 8 nM. Besides, the ED50 in experiment [2] worked out at 0.47 mg/kg.
For the compound `CCCCc1nc(SCC)c(C(=O)O)n1Cc1ccc(-c2ccccc2C(=O)O)cc1` [Example 6, 2-butyl-1-[[2'-carboxy-(1,1'-biphenyl)-4-yl]-methyl]-4-(ethylthio)-1H-imidazole-5-carboxylic acid], in experiment [1], the IC50 is 13 nM.
For the compound `CCCCc1nc(SCC)c(CO)n1Cc1ccc(-c2ccccc2C(=O)O)cc1` [Example 14, 4'-[[2-butyl-4-(ethylthio)-5-(hydroxymethyl)-1H-imidazol-1-yl]-methyl]-(1,1'-biphenyl)-2-carboxylic acid], in experiment [1], the IC50 was 10 nM. Further, the ED50 in experiment [2] was found to be 0.78 mg/kg.
Regarding `CCCCc1nc([S+]([O-])c2ccccc2)c(C(=O)O)n1Cc1ccc(-c2ccccc2C(=O)O)cc1` (stereo not drawn) [Example 28, 2-butyl-1-[[2'-carboxy-(1,1'-biphenyl)-4-yl]-methyl]-4-(phenylsulphinyl)-1H-imidazole-5-carboxylic acid], the IC50 at angiotensin II receptor was determined as 10.2 nM.
`CCCCc1nc([S+]([O-])CC)c(C(=O)O)n1Cc1ccc(-c2ccccc2C(=O)O)cc1` (stereo not drawn) [Example 16, 2-butyl-1-[[2'-carboxy-(1,1'-biphenyl)-4-yl]-methyl]-4-(ethylsulphinyl)-1H-imidazole-5-carboxylic acid]: in experiment [2], the ED50 was 0.29 mg/kg.
Turning to `CCCCc1nc(Sc2ccccc2)c(C(=O)O)n1Cc1ccc(-c2ccccc2C(=O)O)cc1` [Example 20, 2-butyl-1-[[2'-carboxy-(1,1'-biphenyl)-4-yl]-methyl]-4-(phenylthio)-1H-imidazole-5-carboxylic acid], the values for the IC50 (on angiotensin II receptor; in experiment [1]) were 17 nM and 5 nM, respectively.
Turning to `CCCCc1nc(SC)c(C(=O)O)n1Cc1ccc(-c2ccccc2-c2nnn[nH]2)cc1` [Example 51, 2-butyl-4-(methylthio)-1-[[2'-(1H-tetrazol-5-yl)-(1,1'-biphenyl)-4-yl]-methyl]-1H-imidazole-5-carboxylic acid], the IC50 at angiotensin II receptor stood at 1.9 nM; in experiment [1] it was 0.14 nM. Also, the ED50 in experiment [2] worked out at 0.054 mg/kg.
For the compound `CCCCc1nc(SC)c(C(=O)OCOC(=O)C(C)(C)C)n1Cc1ccc(-c2ccccc2-c2nn[nH]n2)cc1` [Example 106], the ED50 in experiment [2] was found to be 0.04 mg/kg.
In the case of `CCCCc1nc(Sc2ccccc2)c(C(=O)O)n1Cc1ccc(-c2ccccc2-c2nn[nH]n2)cc1` [Example 92], the IC50 at angiotensin II receptor was found to be 0.5 nM. For the same compound, the ED50 in experiment [2] stood at 0.08 mg/kg.
With `CCCCc1nc(S(=O)(=O)c2ccccc2)c(C(=O)O)n1Cc1ccc(-c2ccccc2C(=O)O)cc1` [Example 26, 2-butyl-1-[[2'-carboxy-(1,1'-biphenyl)-4-yl]-methyl]-4-(phenylsulphonyl)-1H-imidazole-5-carboxylic acid], the IC50 on angiotensin II receptor amounted to 47 nM.
Turning to `CCCCc1nc(S(=O)(=O)CC)c(C(=O)O)n1Cc1ccc(-c2ccccc2C(=O)O)cc1` [Example 18, 2-butyl-1-[[2'-carboxy-(1,1'-biphenyl)-4-yl]-methyl]-4-(ethylsulphonyl)-1H-imidazole-5-carboxylic acid], the ED50 in experiment [2] stood at 0.79 mg/kg.
